Test results reported in ChEMBL document CHEMBL1201862, “PubChem BioAssay data set” (2004).
The source made the active and inactive calls.

Legend:
[1] = biological target: T1, Carboxy-terminal domain RNA polymerase II polypeptide A small phosphatase 1 (Homo sapiens, UniProt Q9GZU7); experiment: inhibitors of CTDSP1, concentration-response testing, biochemical assay, absorbance-based, actives from ultra-high-throughput screening (AID 540297); type: functional
T1 sequence (Q9GZU7 whole entry): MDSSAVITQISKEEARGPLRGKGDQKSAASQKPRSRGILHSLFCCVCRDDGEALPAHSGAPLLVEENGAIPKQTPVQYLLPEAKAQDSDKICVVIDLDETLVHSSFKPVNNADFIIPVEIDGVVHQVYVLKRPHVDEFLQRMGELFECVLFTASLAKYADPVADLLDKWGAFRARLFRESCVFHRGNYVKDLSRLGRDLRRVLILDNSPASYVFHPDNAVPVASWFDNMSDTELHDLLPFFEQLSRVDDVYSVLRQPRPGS

[2] = test system: Streptococcus sp. 'group A'; experiment: growth inhibition of control SK(-) GAS strain, dose response, counter-screen for streptokinase expression inhibitor project, luminescence, kanamycin, BacTiterGlo, confirmation (AID 1900); type: functional, organism-based; conditions: read-out: EC50
[3] = biological target: T2, Tyrosine-protein phosphatase non-receptor type 7 (Homo sapiens, UniProt P35236); type: functional
T2 sequence (P35236 whole entry): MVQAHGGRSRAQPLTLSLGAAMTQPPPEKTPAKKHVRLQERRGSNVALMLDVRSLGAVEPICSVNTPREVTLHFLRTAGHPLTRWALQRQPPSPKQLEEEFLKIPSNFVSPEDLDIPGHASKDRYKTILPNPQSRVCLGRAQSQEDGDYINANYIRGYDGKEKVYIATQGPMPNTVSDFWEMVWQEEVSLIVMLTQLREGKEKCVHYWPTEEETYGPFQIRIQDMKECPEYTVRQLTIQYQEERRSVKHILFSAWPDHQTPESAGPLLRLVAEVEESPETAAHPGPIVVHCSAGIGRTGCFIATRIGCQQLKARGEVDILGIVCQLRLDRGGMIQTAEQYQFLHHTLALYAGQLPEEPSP

[4] = biological target: Induced myeloid leukemia cell differentiation protein Mcl-1 (Homo sapiens, UniProt Q07820); type: functional
[5] = biological target: T3, Rac GTPase-activating protein 1 (Homo sapiens, UniProt Q9H0H5); experiment: MgcRacGAP GTPase-activating activity inhibitors, confirmation, biochemical, ADP Hunter fluorescence, primary and confirmatory (AID 624330); type: functional
T3 sequence (Q9H0H5 whole entry): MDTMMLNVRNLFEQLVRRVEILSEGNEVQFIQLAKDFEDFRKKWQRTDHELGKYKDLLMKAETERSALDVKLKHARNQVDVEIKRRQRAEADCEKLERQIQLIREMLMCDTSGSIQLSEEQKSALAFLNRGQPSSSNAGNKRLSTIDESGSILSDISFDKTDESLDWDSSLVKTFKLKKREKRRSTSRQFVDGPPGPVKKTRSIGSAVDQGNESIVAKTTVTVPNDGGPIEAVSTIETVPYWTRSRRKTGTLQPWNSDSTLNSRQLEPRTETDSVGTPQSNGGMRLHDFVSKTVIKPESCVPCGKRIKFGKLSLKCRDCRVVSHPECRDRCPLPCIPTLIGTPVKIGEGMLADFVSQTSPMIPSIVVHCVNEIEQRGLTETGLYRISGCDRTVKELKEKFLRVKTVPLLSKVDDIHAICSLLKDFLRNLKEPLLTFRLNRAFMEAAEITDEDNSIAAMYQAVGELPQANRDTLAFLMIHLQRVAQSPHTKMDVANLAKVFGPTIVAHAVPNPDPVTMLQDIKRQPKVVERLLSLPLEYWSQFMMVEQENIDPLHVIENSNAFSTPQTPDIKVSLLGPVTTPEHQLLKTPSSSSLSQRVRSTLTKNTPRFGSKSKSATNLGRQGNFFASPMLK

[6] = biological target: Intestinal-type alkaline phosphatase (Mus musculus, UniProt P24822); experiment: PubChem AID 488874; type: functional
Nonstructural protein 1 = Nonstructural protein 1 (Influenza A virus, UniProt Q194T2); type: functional, Influenza A virus (A/California/07/2009(H1N1))
[7] = biological target: Serine/threonine-protein kinase PLK3 (Homo sapiens, UniProt Q9H4B4); type: functional
[8] = biological target: RAC-gamma serine/threonine-protein kinase (Homo sapiens, UniProt Q9Y243); type: functional
[9] = biological target: Testis-specific serine/threonine-protein kinase 2 (Homo sapiens, UniProt Q96PF2); type: functional;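 note: part of the Navigating the Kinome panel, target entry STK22B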
[10] = biological target: Death-associated protein kinase 3 (Homo sapiens, UniProt O43293); type: functional;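 note: measured as one member of a kinome-wide profiling panel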
[11] = biological target: Casein kinase II subunit alpha (Homo sapiens, UniProt P68400); type: functional
[12] = biological target: Mitogen-activated protein kinase 13 (Homo sapiens, UniProt O15264); type: functional
[13] = biological target: Mitogen-activated protein kinase kinase kinase 20 (Homo sapiens, UniProt Q9NYL2); type: functional
[14] = biological target: Hepatocyte growth factor receptor (Homo sapiens, UniProt P08581); type: functional;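 note: kinase panel profiling across the kinome, with MET as the panel member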
[15] = biological target: Receptor-type tyrosine-protein kinase FLT3 (Homo sapiens, UniProt P36888); type: functional;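 note: FLT3 was tested as one member of a kinome-wide kinase panel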
[16] = biological target: MAP kinase-interacting serine/threonine-protein kinase 2 (Homo sapiens, UniProt Q9HBH9); type: functional
[17] = biological target: Insulin-like growth factor 1 receptor (Homo sapiens, UniProt P08069); experiment: Navigating the Kinome. Panel member name: IGF1R; type: functional
[18] = biological target: cAMP-dependent protein kinase catalytic subunit PRKX (Homo sapiens, UniProt P51817); type: functional
Aurora kinase B = Aurora kinase B (Homo sapiens, UniProt Q96GD4); type: functional
[19] = biological target: Vascular endothelial growth factor receptor 3 (Homo sapiens, UniProt P35916); type: functional;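 note: value from a kinome-wide profiling panel, with FLT4 as the panel member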
[20] = biological target: BDNF/NT-3 growth factors receptor (Homo sapiens, UniProt Q16620); type: functional;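 note: NTRK2 measured as one member of a broad kinome-wide kinase profiling panel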
[21] = biological target: Receptor tyrosine-protein kinase erbB-4 (Homo sapiens, UniProt Q15303); type: functional;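 note: ERBB4 member of a kinome-wide kinase profiling panel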
[22] = biological target: Tyrosine-protein kinase FRK (Homo sapiens, UniProt P42685); type: functional;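 note: FRK tested as one member of a kinome panel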

Chain of RAC-gamma serine/threonine-protein kinase (Q9Y243 whole entry): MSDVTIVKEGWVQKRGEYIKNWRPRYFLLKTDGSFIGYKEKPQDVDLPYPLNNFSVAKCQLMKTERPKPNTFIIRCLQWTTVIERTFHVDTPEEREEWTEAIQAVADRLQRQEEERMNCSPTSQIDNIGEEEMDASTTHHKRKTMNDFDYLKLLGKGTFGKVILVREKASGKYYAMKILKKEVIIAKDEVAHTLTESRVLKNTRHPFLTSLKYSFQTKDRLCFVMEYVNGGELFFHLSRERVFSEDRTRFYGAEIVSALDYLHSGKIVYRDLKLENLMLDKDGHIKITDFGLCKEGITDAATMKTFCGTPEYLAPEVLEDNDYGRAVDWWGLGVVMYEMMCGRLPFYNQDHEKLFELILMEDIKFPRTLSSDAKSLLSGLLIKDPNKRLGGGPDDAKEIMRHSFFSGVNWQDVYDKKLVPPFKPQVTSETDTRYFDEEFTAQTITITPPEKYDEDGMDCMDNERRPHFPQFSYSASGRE
Chain of Casein kinase II subunit alpha (P68400 whole entry): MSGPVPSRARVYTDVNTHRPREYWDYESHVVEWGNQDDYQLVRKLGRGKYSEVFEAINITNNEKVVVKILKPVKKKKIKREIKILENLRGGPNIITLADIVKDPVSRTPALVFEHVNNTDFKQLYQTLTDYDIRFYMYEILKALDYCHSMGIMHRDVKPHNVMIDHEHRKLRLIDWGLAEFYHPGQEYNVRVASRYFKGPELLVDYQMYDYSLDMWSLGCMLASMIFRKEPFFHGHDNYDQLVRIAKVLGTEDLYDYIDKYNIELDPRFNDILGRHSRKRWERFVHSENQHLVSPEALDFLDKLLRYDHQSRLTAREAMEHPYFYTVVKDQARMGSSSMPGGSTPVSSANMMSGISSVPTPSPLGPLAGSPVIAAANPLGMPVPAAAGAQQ
Chain of Vascular endothelial growth factor receptor 3 (P35916 whole entry): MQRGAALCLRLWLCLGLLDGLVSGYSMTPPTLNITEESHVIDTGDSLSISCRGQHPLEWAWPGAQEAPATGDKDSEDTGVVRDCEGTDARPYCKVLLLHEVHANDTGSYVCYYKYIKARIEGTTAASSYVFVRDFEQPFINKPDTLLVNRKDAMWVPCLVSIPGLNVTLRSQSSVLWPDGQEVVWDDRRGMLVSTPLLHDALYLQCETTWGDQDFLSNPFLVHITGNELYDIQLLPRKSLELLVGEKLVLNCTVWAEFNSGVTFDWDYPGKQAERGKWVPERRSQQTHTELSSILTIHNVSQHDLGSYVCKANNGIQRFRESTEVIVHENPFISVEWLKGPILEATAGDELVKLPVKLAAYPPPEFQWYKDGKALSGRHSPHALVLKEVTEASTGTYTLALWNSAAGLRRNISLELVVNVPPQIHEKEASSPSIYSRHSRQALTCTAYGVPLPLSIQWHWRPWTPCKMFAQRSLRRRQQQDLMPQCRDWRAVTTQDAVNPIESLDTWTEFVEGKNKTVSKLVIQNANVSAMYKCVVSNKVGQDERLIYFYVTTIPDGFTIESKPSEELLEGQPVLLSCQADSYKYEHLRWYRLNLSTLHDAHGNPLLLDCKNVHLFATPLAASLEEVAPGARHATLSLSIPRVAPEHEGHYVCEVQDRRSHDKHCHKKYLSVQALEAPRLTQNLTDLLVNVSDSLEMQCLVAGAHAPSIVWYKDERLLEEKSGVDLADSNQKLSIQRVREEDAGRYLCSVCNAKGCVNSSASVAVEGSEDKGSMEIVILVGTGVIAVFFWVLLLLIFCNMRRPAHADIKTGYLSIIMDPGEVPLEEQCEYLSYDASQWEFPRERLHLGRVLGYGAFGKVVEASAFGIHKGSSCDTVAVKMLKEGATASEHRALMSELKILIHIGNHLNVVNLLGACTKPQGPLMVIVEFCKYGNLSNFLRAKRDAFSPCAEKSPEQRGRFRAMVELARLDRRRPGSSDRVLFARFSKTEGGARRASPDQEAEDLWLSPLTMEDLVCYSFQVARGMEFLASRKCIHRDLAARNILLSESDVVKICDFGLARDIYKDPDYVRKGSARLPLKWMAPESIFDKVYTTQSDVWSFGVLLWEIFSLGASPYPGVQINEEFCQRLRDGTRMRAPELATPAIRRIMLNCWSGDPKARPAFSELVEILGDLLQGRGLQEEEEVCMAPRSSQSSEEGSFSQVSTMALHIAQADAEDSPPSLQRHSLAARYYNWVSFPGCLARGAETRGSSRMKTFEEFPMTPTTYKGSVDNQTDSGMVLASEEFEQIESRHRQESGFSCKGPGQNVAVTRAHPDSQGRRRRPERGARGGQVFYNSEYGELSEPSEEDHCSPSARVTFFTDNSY
Chain of Intestinal-type alkaline phosphatase (P24822 whole entry): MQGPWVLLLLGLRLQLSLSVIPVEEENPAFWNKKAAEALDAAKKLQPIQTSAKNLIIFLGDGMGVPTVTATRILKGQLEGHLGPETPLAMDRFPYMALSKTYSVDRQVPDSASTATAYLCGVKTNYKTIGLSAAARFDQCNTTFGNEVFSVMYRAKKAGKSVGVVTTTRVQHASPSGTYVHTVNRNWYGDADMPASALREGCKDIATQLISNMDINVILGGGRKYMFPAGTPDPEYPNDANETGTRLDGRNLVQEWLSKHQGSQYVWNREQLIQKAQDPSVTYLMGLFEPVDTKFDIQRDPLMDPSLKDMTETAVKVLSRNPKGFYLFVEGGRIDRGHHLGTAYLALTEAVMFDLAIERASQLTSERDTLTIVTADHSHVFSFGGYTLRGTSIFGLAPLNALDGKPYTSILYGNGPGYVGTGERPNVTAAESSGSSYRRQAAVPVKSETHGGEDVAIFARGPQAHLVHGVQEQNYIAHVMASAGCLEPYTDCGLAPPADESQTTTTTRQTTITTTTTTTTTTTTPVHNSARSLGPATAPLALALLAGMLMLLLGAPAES
Chain of Insulin-like growth factor 1 receptor (P08069 31-736 limits assumed): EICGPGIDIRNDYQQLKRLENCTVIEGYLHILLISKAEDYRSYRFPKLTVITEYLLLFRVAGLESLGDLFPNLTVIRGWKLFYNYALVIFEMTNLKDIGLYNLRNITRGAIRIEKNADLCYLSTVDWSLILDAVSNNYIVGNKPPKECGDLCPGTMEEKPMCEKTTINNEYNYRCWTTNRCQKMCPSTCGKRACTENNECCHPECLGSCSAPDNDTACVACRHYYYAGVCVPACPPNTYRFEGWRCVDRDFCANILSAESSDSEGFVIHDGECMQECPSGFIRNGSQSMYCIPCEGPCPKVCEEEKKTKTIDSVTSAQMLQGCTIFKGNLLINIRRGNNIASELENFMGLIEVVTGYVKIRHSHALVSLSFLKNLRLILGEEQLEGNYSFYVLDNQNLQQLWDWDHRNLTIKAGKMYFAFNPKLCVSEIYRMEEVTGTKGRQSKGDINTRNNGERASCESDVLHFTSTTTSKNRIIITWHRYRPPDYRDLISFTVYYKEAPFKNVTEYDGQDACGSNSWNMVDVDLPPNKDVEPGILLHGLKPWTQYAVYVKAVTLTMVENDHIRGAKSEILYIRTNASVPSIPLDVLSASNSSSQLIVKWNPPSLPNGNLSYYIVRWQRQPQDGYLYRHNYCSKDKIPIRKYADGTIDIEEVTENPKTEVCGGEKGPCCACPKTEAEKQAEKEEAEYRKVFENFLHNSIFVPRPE
Chain of Insulin-like growth factor 1 receptor (P08069 741-1367 limits assumed): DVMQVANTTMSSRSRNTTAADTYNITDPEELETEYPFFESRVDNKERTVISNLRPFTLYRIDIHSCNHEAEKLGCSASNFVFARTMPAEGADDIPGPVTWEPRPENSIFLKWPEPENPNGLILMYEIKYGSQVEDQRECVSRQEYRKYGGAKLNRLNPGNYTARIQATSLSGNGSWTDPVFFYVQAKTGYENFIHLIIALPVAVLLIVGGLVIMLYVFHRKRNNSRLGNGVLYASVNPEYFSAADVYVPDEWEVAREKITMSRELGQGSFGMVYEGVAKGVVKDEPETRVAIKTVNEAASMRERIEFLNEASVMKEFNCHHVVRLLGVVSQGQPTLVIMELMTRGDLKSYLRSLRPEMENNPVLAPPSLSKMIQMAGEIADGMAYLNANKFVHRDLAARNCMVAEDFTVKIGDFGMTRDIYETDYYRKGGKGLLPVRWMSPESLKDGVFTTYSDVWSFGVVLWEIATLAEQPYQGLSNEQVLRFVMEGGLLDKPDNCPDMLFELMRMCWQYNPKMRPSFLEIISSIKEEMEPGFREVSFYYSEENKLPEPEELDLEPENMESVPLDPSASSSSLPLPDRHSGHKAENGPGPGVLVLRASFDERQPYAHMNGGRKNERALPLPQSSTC
Chain of MAP kinase-interacting serine/threonine-protein kinase 2 (Q9HBH9 whole entry): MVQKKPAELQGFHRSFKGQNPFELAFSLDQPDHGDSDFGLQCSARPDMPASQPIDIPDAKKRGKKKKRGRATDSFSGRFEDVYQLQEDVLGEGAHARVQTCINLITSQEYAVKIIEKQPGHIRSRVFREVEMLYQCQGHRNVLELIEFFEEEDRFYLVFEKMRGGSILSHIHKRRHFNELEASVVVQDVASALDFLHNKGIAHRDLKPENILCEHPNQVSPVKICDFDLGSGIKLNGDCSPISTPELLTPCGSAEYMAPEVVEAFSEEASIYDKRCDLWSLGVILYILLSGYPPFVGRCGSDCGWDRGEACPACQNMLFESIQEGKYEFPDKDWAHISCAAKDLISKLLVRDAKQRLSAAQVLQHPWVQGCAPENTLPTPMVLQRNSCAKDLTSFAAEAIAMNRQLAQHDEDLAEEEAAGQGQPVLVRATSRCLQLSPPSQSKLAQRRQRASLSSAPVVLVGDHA
Chain of Aurora kinase B (Q96GD4 whole entry): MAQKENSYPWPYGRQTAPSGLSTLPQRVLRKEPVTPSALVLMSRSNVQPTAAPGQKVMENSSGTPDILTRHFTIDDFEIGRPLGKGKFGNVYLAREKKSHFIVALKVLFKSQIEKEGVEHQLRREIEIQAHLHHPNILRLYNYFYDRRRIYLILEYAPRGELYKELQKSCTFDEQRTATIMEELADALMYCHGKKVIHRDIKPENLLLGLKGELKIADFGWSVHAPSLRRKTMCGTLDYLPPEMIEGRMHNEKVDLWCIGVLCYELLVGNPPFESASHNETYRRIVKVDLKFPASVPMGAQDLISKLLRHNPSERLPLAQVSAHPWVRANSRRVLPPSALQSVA

O=C1N=C(NS(=O)(=O)Cc2ccccc2)S/C1=C1\C(=O)Nc2ccccc21
active: IC50 [1] 16.7 µM

O=C1C=C(N2CCCCC2)c2ccccc2C1=O
active: EC50 [2] 1.88 µM

O=C(O)C1Nc2c(O)cc(Cl)c([N+](=O)[O-])c2C2C=CCC12 (stereo unspecified)
active: IC50 [3] 3.84 µM | IC50 [4] > 54 µM | IC50 [5] 27.9 µM

Clc1ccc2nc(-c3ccc(Br)s3)cn2c1
inactive: EC50 (cells) > 67.5 µM

Oc1ccc(N=Nc2c(O)ccc3ccccc23)cc1
active: IC50 [6] 17.4 µM | IC50 (Nonstructural protein 1) 17.5 µM

Cc1n[nH]c2ccc(-c3cncc(OCC(N)Cc4cccc(Cl)c4)c3)cc12 (stereo unspecified)
active: Ki [8] 0.00501 µM | Ki [9] 1.58 µM | Ki [10] 0.0794 µM | Ki [11] 3.98 µM | Ki [12] 0.631 µM | Ki [13] 7.94 µM | Ki [15] 0.158 µM | Ki [16] 0.316 µM | Ki [18] 0.001 µM | Ki (Aurora kinase B) 0.2 µM | Ki [19] 2.51 µM
8.3: pKi [8]
inactive: Ki [7] > 7.94 µM | Ki [14] > 3.16 µM | Ki [17] > 2 µM | Ki [20] > 5.01 µM | Ki [21] > 3.98 µM | Ki [22] > 2.51 µM
